According to PMC9774128, “New Insights into the Mechanism of Antibacterial Action of Synthetic Peptide Mo-CBP3-PepI against Klebsiella pneumoniae” (Antibiotics, 2022):

Tests used:
K. pneumoniae biofilm = test: Antibiofilm assay: inhibition of biofilm formation, crystal violet; assay type: cell-based, Klebsiella pneumoniae; details: peptide 31.25 μg mL^−1; 48 h, 37 °C; crystal violet O.D. 600 nm; triplicate, three independent experiments
Protocol: The antibiofilm assay was conducted in flat-bottom 96-well polystyrene microplates as described by Neto et al.. A single colony of K. pneumoniae was collected in stock Petri plates containing inoculated Mueller–Hinton agar. The colony was used as inoculum for 5 mL of Mueller–Hinton broth, and the media was incubated for 24 h in the dark at 37 °C. In sequence, the O.D. of the cell suspension was measured using a microplate reader (Epoch, BioTek) and adjusted to 0.1 at 630 nm with Mueller–Hinton broth. For the inhibition of biofilm formation, 50 µL of the cell ([…]) suspension was incubated with 50 µL of the peptide (31.25 μg mL^−1) solution and 50 µL of the respective controls described above. The incubation lasted for 48 h at 37 °C. For the biofilm degradation assay, 50 µL of the cell suspension was incubated for 24 h at 37 °C. After this, 50 µL of the peptide solution and the respective controls were added to the wells containing the preformed biofilm and incubated for 24 h at 37 °C.
After incubation, both wells of biofilm formation inhibition and biofilm degradation were washed once with a sterile saline solution. Then, the wells were fixated with 100 µL methanol 99% for 15 min. […] Then, the crystals stained on the biofilm were diluted with 200 µL of 33% acetic acid, and the O.D was measured using a wavelength of 600 nm. […]

K. pneumoniae cells = details: 31.25 µg mL^−1, 24 h
Protocol: After this, samples were washed twice with 50 mM sodium acetate pH 5.2, with centrifugations at 12,000× g for 15 min at 4 °C. At the end of the washes, the samples were resuspended in 300 µL in the same buffer and frozen for 24 h. Then, the frozen samples were sonicated for 30 min to break the cell wall and membrane, the samples were centrifuged again, and the supernatant was collected.
After that, the Bradford assay was performed to determine the protein concentration in the samples. This step was followed by adding a 10 mM DTT solution under incubation for 1 h at 37 °C to reduce the proteins. Then iodoacetamide was added to a final concentration of 15 mM and incubated for 30 min in a dark room to alkylate the reduced proteins. The proteins reduced and alkylated were digested using trypsin gold (Promega, Madison, WI, USA) to a final concentration of 1:20 (w/w) as described by manufacturers. The trypsin digestion was performed for 16 h at 37 °C. Finally, the samples were dried in a speed vacuum (Eppendorf, Hamburg, Germany) for 3 h and analyzed by ESI-QUAD-TOF mass spectrometer.
Tandem mass spectra were extracted into PKL files for both samples, and the proteins were searched using MASCOT MS/MS ions search from MATRIX SCIENCE (https://www.matrixscience.com/cgi/search_form.pl?FORMVER=2&SEARCH=MIS (accessed on 15 September 2022)) against UP625_E_coli_K12 (AA), UP808_K_pneumoniae and SwissProt databases (the taxonomy was set in bacteria). The terms for the search were: fixed modifications to Carbamidomethyl (C); variable modifications to Oxidation […]; the Peptide tolerance was set to 1.2 DA (with 1% FDR); the MS/MS tolerance was set to 0.6 DA; the peptide charge was set to 2+, 3+, and 4+; and finally, the instrument was set to ESI-QUAD-TOF. The proteins identified in both samples were searched for in UNIPROT and separated into 3 sets (unique from control, unique from the cells treated with Mo-CBP3-PepI, and Mo-CBP3-PepI x control shared proteins).
The proteins with a fold-change value ≥ 1.5 (p < 0.05, Tukey’s test) that were up-accumulated (increased the abundance), and proteins with a fold-change value ≤ 0.5 (p < 0.05, Tukey’s test) that were down-accumulated (decreased the abundance) were taken into consideration for comparisons. For each protein, its corresponding FASTA file was downloaded. Then, the blast2go program (https://www.blast2go.com/ (accessed on 30 September 2022)) was used to categorize the proteins detected by Gene Ontology (GO) annotation according to Molecular function, […], and subcellular location.

CPAIQRCC [Mo-CBP3-PepI]
Inhibition of Biofilm Formation (%) (K. pneumoniae biofilm): 11.87 ± 0.001% | Fold Change Mo-CBP3-PepI vs. DMSO: Methylenetetrahydrofolate--tRNA-(uracil-5-)-methyltransferase TrmFO (K. pneumoniae cells; A4WRQ2): 0.948 | Fold Change Mo-CBP3-PepI vs. DMSO: 50S ribosomal protein L22 (K. pneumoniae cells; A5IYY1): 0.187 | Fold Change Mo-CBP3-PepI vs. DMSO: Phosphoenolpyruvate carboxykinase (ATP) (K. pneumoniae cells; A8AQV7): 0.990 | Fold Change Mo-CBP3-PepI vs. DMSO: Xylose isomerase (K. pneumoniae cells; B5ZQV6): 1.062 | Fold Change Mo-CBP3-PepI vs. DMSO: Pantothenate synthetase (K. pneumoniae cells; B8I2Z3): 1.142 | Fold Change Mo-CBP3-PepI vs. DMSO: Chaperonin GroEL (K. pneumoniae cells; P0A6F5): 1.444 | Fold Change Mo-CBP3-PepI vs. DMSO: Pantothenate kinase (K. pneumoniae cells; P0A6I3): 0.548 | Fold Change Mo-CBP3-PepI vs. DMSO: HTH-type transcriptional regulator ArgP (K. pneumoniae cells; P0A8S1): 2.364 | Fold Change Mo-CBP3-PepI vs. DMSO: 50S ribosomal protein L7/L12 (K. pneumoniae cells; P0A466): 1.979 | Fold Change Mo-CBP3-PepI vs. DMSO: Zinc resistance-associated protein (K. pneumoniae cells; P0AAA9): 1.682 | Fold Change Mo-CBP3-PepI vs. DMSO: Cysteine synthase A (K. pneumoniae cells; P0ABK5): 0.596 | Fold Change Mo-CBP3-PepI vs. DMSO: Fimbriae Z protein (K. pneumoniae cells; P0AEL8): 0.690 | Fold Change Mo-CBP3-PepI vs. DMSO: Ferrichrome outer membrane transporter/phage receptor (K. pneumoniae cells; P06971): 1.063 | Fold Change Mo-CBP3-PepI vs. DMSO: Iron (3+)-hydroxamate import system permease protein FhuB (K. pneumoniae cells; P06972): 0.948 | Fold Change Mo-CBP3-PepI vs. DMSO: 2-succinyl-5-enolpyruvyl-6-hydroxy-3-cyclohexene-1-carboxylate synthase (K. pneumoniae cells; P17109): 3.486 | Fold Change Mo-CBP3-PepI vs. DMSO: Sensor protein PhoQ (K. pneumoniae cells; P23837): 0.823 | Fold Change Mo-CBP3-PepI vs. DMSO: Lipopolysaccharide core biosynthesis protein RfaZ (K. pneumoniae cells; P27241): 2.038 | Fold Change Mo-CBP3-PepI vs. DMSO: Inner membrane protein YhjD (K. pneumoniae cells; P37642): 0.362 | Fold Change Mo-CBP3-PepI vs. DMSO: Gamma-glutamylputrescine oxidoreductase (K. pneumoniae cells; P37906): 0.985 | Fold Change Mo-CBP3-PepI vs. DMSO: Endonuclease 8 (K. pneumoniae cells; P50465): 0.287 | Fold Change Mo-CBP3-PepI vs. DMSO: Sensor histidine kinase GlrK (K. pneumoniae cells; P52101): 0.752 | Fold Change Mo-CBP3-PepI vs. DMSO: 2.3-bisphosphoglycerate-dependent phosphoglycerate mutase (K. pneumoniae cells; P62707): 0.519 | Fold Change Mo-CBP3-PepI vs. DMSO: Low affinity potassium transport system protein kup (K. pneumoniae cells; P63183): 1.704 | Fold Change Mo-CBP3-PepI vs. DMSO: Peptide methionine sulfoxide reductase MsrB (K. pneumoniae cells; P75129): 14.104 | Fold Change Mo-CBP3-PepI vs. DMSO: Probable cytosol aminopeptidase (K. pneumoniae cells; P75206): 2.097 | Fold Change Mo-CBP3-PepI vs. DMSO: tRNA uridine 5-carboxymethylaminomethyl modification enzyme MnmG (K. pneumoniae cells; P75221): 0.487 | Fold Change Mo-CBP3-PepI vs. DMSO: Phosphate acyltransferase (K. pneumoniae cells; P75232): 3.096 | Fold Change Mo-CBP3-PepI vs. DMSO: Putative ABC transporter ATP-binding protein MPN_334 (K. pneumoniae cells; P75444): 1.336 | Fold Change Mo-CBP3-PepI vs. DMSO: Putative acetyltransferase MPN_114 (K. pneumoniae cells; P75448): 1.703 | Fold Change Mo-CBP3-PepI vs. DMSO: Cytadherence high molecular weight protein 2 (K. pneumoniae cells; P75471): 1.682 | Fold Change Mo-CBP3-PepI vs. DMSO: Oligopeptide transport ATP-binding protein OppD (K. pneumoniae cells; P75552): 0.948 | Fold Change Mo-CBP3-PepI vs. DMSO: Phenylacetate-coenzyme A ligase (K. pneumoniae cells; P76085): 1.666 | Fold Change Mo-CBP3-PepI vs. DMSO: Sensor histidine kinase HprS (K. pneumoniae cells; P76339): 0.213 | Fold Change Mo-CBP3-PepI vs. DMSO: UDP-glucose 6-dehydrogenase (K. pneumoniae cells; P76373): 0.902 | Fold Change Mo-CBP3-PepI vs. DMSO: Cation efflux system protein CusC (K. pneumoniae cells; P77211): 0.920 | Fold Change Mo-CBP3-PepI vs. DMSO: Glycerate 3-kinase (K. pneumoniae cells; P77364): 0.745 | Fold Change Mo-CBP3-PepI vs. DMSO: Glutathione S-transferase YfcF (K. pneumoniae cells; P77544): 0.273 | Fold Change Mo-CBP3-PepI vs. DMSO: HTH-type transcriptional regulator SutR (K. pneumoniae cells; P77626): 2.566 | Fold Change Mo-CBP3-PepI vs. DMSO: Lon protease (K. pneumoniae cells; P78025): 0.342 | Fold Change Mo-CBP3-PepI vs. DMSO: Pyruvate kinase (K. pneumoniae cells; P78031): 3.139 | Fold Change Mo-CBP3-PepI vs. DMSO: Undecaprenyl-diphosphatase (K. pneumoniae cells; Q2KX31): 1.340 | Fold Change Mo-CBP3-PepI vs. DMSO: Periplasmic trehalase (K. pneumoniae cells; Q4UZ12): 0.937 | Fold Change Mo-CBP3-PepI vs. DMSO: GMP synthase (glutamine-hydrolyzing) (K. pneumoniae cells; Q6APU2): 4.596 | Fold Change Mo-CBP3-PepI vs. DMSO: Elongation factor G (K. pneumoniae cells; Q7NAV3): 0.234 | Fold Change Mo-CBP3-PepI vs. DMSO: Diaminopimelate decarboxylase (K. pneumoniae cells; Q8K9C4): 3.546 | Fold Change Mo-CBP3-PepI vs. DMSO: Bifunctional protein FolD (K. pneumoniae cells; Q88WM8): 0.726 | Fold Change Mo-CBP3-PepI vs. DMSO: Mgp-operon protein 3 (K. pneumoniae cells; Q50341): 0.654
